Consider 29 compounds from PubChem BioAssay AID179 (DTP/NCI, 2004).

Calls of active or inactive are those of the source.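 Rule for the calls: active = compounds giving half or more protection of infected cells from virus-caused growth loss, again on retest; inactive = the rest.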

The subject of the assay is CEM cells HIV-1 protection, formazan growth assay. Description: NCI AIDS Antiviral Assay. The note with it: for IC50: measured here: growth of uninfected CEM cells. In a few lines: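 Protection of CEM cells against HIV-1 was scored from cell growth (soluble formazan) across five concentrations, with parallel uninfected cells. Lack of protection may reflect toxicity.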

For `COC(=O)C(Cc1ccccc1)C(=O)C(CC(=O)OC(C)(C)C)NC(=O)OC(C)(C)C` (stereo unspecified), the EC50 – broadly, the concentration that produces a half-maximal response – is greater than 200 µM and the IC50 (commonly the point on the concentration scale where inhibition reaches its midpoint) is greater than 200 µM.

As to `CC(=O)OC1C2CCC3CC2C2(SCCS2)C31` (stereo unspecified), the EC50 was greater than 200 µM and the half-inhibitory concentration (IC50) is greater than 200 µM.

Turning to `COC(=O)c1cc(C)ccc1/C=C1\Cc2cc(C)c(C)cc2C1=O`, the EC50 was greater than 100 µM and the half-inhibitory concentration (IC50) is greater than 100 µM.

In the case of `COc1cc(C(=O)C/C(CCC(=O)Nc2ccc(Cl)cc2Cl)=N/Nc2nnc(C)n2N)ccc1O`, the EC50 was greater than 50.1 µM and the IC50 was greater than 50.1 µM.

`Cc1ccc(N2CCc3c(C)c(C#N)c4nc5ccccc5n4c32)cc1`: the EC50 was greater than 200 µM and the IC50 is greater than 200 µM.

Consider `N/N=C1/CCCc2nonc21`, for which the EC50 was greater than 200 µM and the IC50 was greater than 200 µM.

As for `CC(C)CCCC(C)[C@H]1CC[C@H]2[C@@H]3CC[C@H]4C[C@@H](CCC=C(c5cc(Cl)c(O)c(C(=O)OC(C)(C)C)c5)c5cc(Cl)c(O)c(C(=O)OC(C)(C)C)c5)CC[C@]4(C)[C@H]3CC[C@]12C` (stereo partly specified), the EC50 was greater than 50.1 µM and the IC50 was greater than 50.1 µM.

Turning to `O=[N+]([O-])c1cc(I)cc(/C=N/NS(=O)(=O)c2ccc(F)cc2)c1O`, the EC50 was greater than 389 µM and the IC50 came to 67.6 µM.

In the case of `C=CC(C)(C)N[C@@H](C(=O)N1CCC[C@H]1c1nc(-c2nc(C(=O)OCC=C(C)C)c(C)o2)c(C)o1)C(C)C`, the EC50 was greater than 200 µM and the IC50 stood at 58.9 µM.

For `CNc1c(Cl)cccc1S(=O)(=O)c1ccccc1[N+](=O)[O-]`, the EC50 is 3.31 µM and the IC50 is greater than 200 µM.

As to `CC12C(=O)CC(CC1=O)C2(C)C`, the EC50 is greater than 200 µM and the IC50 is greater than 200 µM.

On to `CCCCCCCCCC(=O)Oc1cccc2onc(C)c12`, for which the EC50 is greater than 24 µM and the IC50 was greater than 24 µM.

As to `COC(=O)c1csnn1`, the EC50 is greater than 1740 µM and the concentration for half-maximal inhibition (IC50) is greater than 1740 µM.

`CC1(CO)CC(O)C(n2cnc3c(N)ncnc32)O1` (stereo unspecified): the EC50 is greater than 5.13 µM and the IC50 is greater than 5.13 µM.

As to `N#CC(NNC(=O)Cc1ccccc1)c1ccccc1O` (stereo unspecified), the EC50 is greater than 129 µM and the IC50 came out at 17 µM.

On to `CCN(CC)CCOc1ccc(C(C#N)=C(c2ccccc2)c2ccccc2)cc1`, for which the EC50 was greater than 200 µM and the 50% inhibitory concentration (IC50) was found to be 2.57 µM.

As for `COc1ccc2c(c1)nc1n2C(c2c(Cl)cccc2Cl)SC1` (stereo unspecified), the EC50 is greater than 200 µM and the concentration for half-maximal inhibition (IC50) stood at 33.1 µM.

For `C(=N\NC1=NCCN1)/c1cccc2cc3ccncc3nc12`, the EC50 is greater than 200 µM and the concentration for half-maximal inhibition (IC50) came out at 0.891 µM.

`COc1ccc(N=c2ssc3c(=S)ssc23)cc1`: the result was inactive.

Regarding `CC1(C)CC(=O)C2=C(C1)S/C(=C1/SC3=C(S1)C(=O)CC(C)(C)C3)S2`, the EC50 is greater than 6.92 µM and the IC50 was greater than 6.92 µM.

`O=c1cc(CCl)nc2c3ncn(C4OC(CO)C(O)C4O)c3ncn12` (stereo unspecified): the result was inactive.

Consider `O=[N+]([O-])c1cccc2nc3ccccc3c(NCCc3cccc[n+]3[O-])c12`, for which the EC50 is greater than 200 µM and the concentration for half-maximal inhibition (IC50) came out at 0.0631 µM.

On to `Oc1ccc(/C=C\c2cnccn2)cc1`, for which the EC50 was greater than 251 µM and the IC50 was 33.9 µM.

With `CCCCCCCCCCCCN(O)C(=O)c1ccccc1`, the EC50 was greater than 17 µM and the IC50 is greater than 17 µM.

Turning to `CCOC(=O)c1ccc(N2C(=O)c3cccc4cccc(c34)C2=O)c([N+](=O)[O-])c1`, the EC50 was greater than 100 µM and the IC50 is 37.2 µM.

In the case of `CNc1nc(SC)nc2c1S(=O)(=O)N=CN2`, the EC50 is greater than 263 µM and the IC50 was greater than 263 µM.

Consider `Cc1cc2nc3ccccc3n2c2nc(N)ccc12`, for which the EC50 is greater than 200 µM and the IC50 was 6.61 µM.

As to `CN1CCN(CCSc2nccc(-c3cc4ccccc4s3)n2)CC1`, the EC50 was greater than 126 µM and the IC50 worked out at 31.6 µM.

On to `COC(=O)C1(CCCCl)CCCN1C(=O)OC(C)(C)C` (stereo unspecified), for which the EC50 is greater than 200 µM and the IC50 was greater than 200 µM.
